Source: patent publication US8673912B2, “Crystalline Forms on N-[3-fluoro-4-({6-(methyloxy)-7-[(3-morpholin-4-ylpropyl)oxy]-quinolin-4-yl}oxy)phenyl]-N′-(4-fluorophenyl)cyclopropane-1,1-dicarboxamide” (Exelixis, Inc., priority 2009, dated 2014)

Experiments:
Assay type in all cases: physicochemical
[1] = Relative thermodynamic stability of crystalline forms; details: forms A and B are enantiotropically related
[2] = Retention of crystalline form in final tablet (XRPD); details: micronized, high shear wet granulation, compression, optional aqueous film coat
Protocol: The tablets in this example were prepared with an optional aqueous film coat. Preparation of the intra-granular component involved a high shear wet granulation to make granules to be used for further processing. All components used are conventional for the wet granulation process except for the sodium lauryl sulfate which was added as a bioenhancement agent to enhance the bioavailability of the drug substance. The crystalline Compound (I), form B, was used in a micronized form for bioenhancement, which means that the density of the drug substance is low making it difficult to handle and process. High shear wet granulation is used to produce dense material that is easier to process and make into tablets. The preparation of the extra-granular component was a compression step to make the tablets out of the granules and the added excipients. The excipients used are conventional to allow for the formation of the tablet. The crystalline form of Compound 1, Form B, was retained in the final tablet as confirmed by XRPD.

[3] = Karl Fisher water content determination; details: crystalline Form A prepared in Example 1.1.2; measured in duplicate
Protocol: The study was done using a standard procedure. Water contents were measured on a Mettler Toledo DL39 Coulometer using Hydranal AG Oven reagent and an argon purge. Samples were introduced into the vessel as solids weighed out onto a platinum TGA pan which was connected to a subaseal via tweezers to avoid water ingress. Approximately 10 mg of sample was used per titration and each analysis was performed in duplicate. The water content of crystalline Compound (I) prepared in Example 1.1.2 was measured in duplicate and gave an average value of 0.1%.

[4] = Gravimetric Vapor Sorption Study (GVS); details: crystalline Form A prepared in Example 1.1.2
Protocol: The GVS study was run using a standard procedure. Samples were run on a Hiden IGASorp moisture sorption analyzer running CFRSorp software. Sample sizes were typically 10 mg. A moisture adsorption desorption isotherm was performed as outlined below. All samples were loaded/unloaded at typical room humidity and temperature (40% RH, 25° C.) and analyzed afterwards by XRPD. The standard isotherm run is a cycle starting at 40% RH→90%→Dry finishing at 35% RH at 25° C. and 10% RH intervals.

COc1cc2c(Oc3ccc(NC(=O)C4(C(=O)Nc5ccc(F)cc5)CC4)cc3F)ccnc2cc1OCCCN1CCOCC1 [Form B, N-[3-fluoro-4-({6-(methyloxy)-7-[(3-morpholin-4-ylpropyl)oxy]quinolin-4-yl}oxy)phenyl]-N′-(4-fluorophenyl)cyclopropane-1,1-dicarboxamide]
temperatures at which the form is believed to be the most thermodynamically stable form [1]: greater than 75 °C | crystalline form in the final tablet as confirmed by XRPD [2]: retained

COc1cc2c(Oc3ccc(NC(=O)C4(C(=O)Nc5ccc(F)cc5)CC4)cc3F)ccnc2cc1OCCCN1CCOCC1 [Compound (I), N-[3-fluoro-4-({6-(methyloxy)-7-[(3-morpholin-4-ylpropyl)oxy]quinolin-4-yl}oxy)phenyl]-N′-(4-fluorophenyl)cyclopropane-1,1-dicarboxamide]
water content (Karl Fisher), average value [3]: 0.1% | weight gain (GVS) ([4]; 25° C. and 90% humidity): 0.5% | reanalysis of the sample by XRPD after GVS ([4]; after isotherm cycle 40% RH to 90% to dry to 35% RH at 25° C.): no change in form

COc1cc2c(Oc3ccc(NC(=O)C4(C(=O)Nc5ccc(F)cc5)CC4)cc3F)ccnc2cc1OCCCN1CCOCC1 [Form A, N-[3-fluoro-4-({6-(methyloxy)-7-[(3-morpholin-4-ylpropyl)oxy]quinolin-4-yl}oxy)phenyl]-N′-(4-fluorophenyl)cyclopropane-1,1-dicarboxamide]
temperatures at which the form is believed to be the most thermodynamically stable form [1]: less than 75 °C
